Reference: patent US9810690B2, “Method for screening inhibitors of Ras” (Araxes Pharma LLC, priority 2015, dated 2017)

Key:
RALA G23C = target: T1, RALA G23C (Homo sapiens, UniProt P11233, G23C); experiment: Rate constant of covalent reaction of competition probes with RALA mutant (mass spectrometry); type: binding
T1 construct: (residues 11-183, either WT or G23C); hexahistidine (TEV-cleavable); made in house; host or cells: Escherichia coli BL21 (DE)
T1 sequence (P11233 11-183 G23C): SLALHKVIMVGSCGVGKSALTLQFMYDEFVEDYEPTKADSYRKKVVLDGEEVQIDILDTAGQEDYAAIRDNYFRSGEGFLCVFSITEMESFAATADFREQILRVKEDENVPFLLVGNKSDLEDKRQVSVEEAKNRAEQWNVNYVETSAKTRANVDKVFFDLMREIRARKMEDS
Experimental: Hexahistidine-tagged recombinant human RalA (“hexahistidine” disclosed as SEQ ID NO: 49) (residues 11-183, either WT or G23C) was transformed into Escherichia coli (BL21 (DE)). After the bacterial grew to an OD(600) of 0.4-0.6 in Terrific Broth containing 30 mg/L kanamycin at 37° C., induction was carried out at 18° C. using 0.5 mM IPTG and growth was continued at 18° C. for about 18 h. The bacteria were harvested by centrifugation and the obtained pellet was either stored at −80° C. or used freshly for the subsequent steps.
(§1) RALA mutant proteins were produced with one mutation to cysteine at the 23 position (G23C) relative to SEQ ID NO: 8 when optimally aligned. KRAS mutant proteins were produced with one mutation to cysteine at the 12 position (G12C) relative to SEQ ID NO: 1 when optimally aligned. The RALA and KRAS mutants were tested for reactivity (e.g., covalent modification of the mutant) with a panel of competition probes that bind the Switch II binding pocket and covalently modify the substituted amino acid with appropriately placed electrophiles based on modeling/docking studies. One such inhibitor covalently bound to RAS (via G12) is depicted in FIG. 2. Screening was carried out by mass spectrometry on an Agilent RapidFire or ThermoScientific Q Exactive system.

KRAS G12C = target: T2, KRAS G12C (Homo sapiens, UniProt P01116, G12C); experiment: Rate constant of covalent reaction of competition probes with KRAS mutant (mass spectrometry); type: binding
T2 construct: made in house
Experimental: as §1

K-Ras D92C = target: T3, K-Ras D92C (Homo sapiens, UniProt P01116, D92C); experiment: QQQ mass spectrometry competition assay for K-Ras D92C binding using competition probe CP-008; conditions: CP-008 (100 nM); test compound over a range of concentrations; incubated for 6 h; FIG. 6
T3 construct: made in house
Experimental: The GDP-loaded K-Ras D92C protein (which also contains a histidine tag) was diluted in a HEPES containing assay buffer shortly before use in the QQQ-assay.
To start the assay an internal nonreactive control compound and competition probe compound (CP-008) were added to the protein solution to form a master mix. The master mix was quickly dispersed in a 96-well plate followed by addition a DMSO stock of the compound of interest. […]
To quench the reaction, the reaction mix was transferred to 2% of formic acid in water (0.2% final in the quenched reaction) in a second plate. After sealing the second plate and quick centrifugation the samples were frozen at −80° C.
The frozen samples were sent on dry ice to Pure Honey Technologies for QQQ-quantitation to determine probe and internal control compound amount in each well. For analysis of the obtained data, the ratio of probe to internal control compound was calculated for each well. The assay window was determined by a negative control (DMSO only, no inhibition) and a positive control (100 μM final of CP-008 at a time point where the probe is fully reacted with protein; assigned 100% inhibition) and allowed the calculation of inhibition of probe depletion by the compound of interest.

SMILES	Rate Constant for Reaction with Indicated Protein, RALA G23C (RALA G23C)	Rate Constant for Reaction with Indicated Protein, KRAS G12C (KRAS G12C)	inhibition of competition probe (CP-008) depletion by D92C K-Ras (K-Ras D92C)
C=CC(=O)N1CCN(c2ncnc3c(F)c(-c4c(O)cccc4F)c(Cl)cc23)CC1 [CP-012]	<1 M⁻¹ s⁻¹	310 M⁻¹ s⁻¹	
C=CC(=O)N1CCN(c2ncnc3cc(Cl)c(-c4ccc(Cl)cc4)cc23)CC1 [CP-013]	10.2 M⁻¹ s⁻¹		
C=CC(=O)N1CCN(c2ncnc3cc(Cl)c(-c4ccccc4)cc23)CC1 [CP-014]	4.0 M⁻¹ s⁻¹		
C=CC(=O)N1CCN(c2ncnc3cc(Cl)c(-c4ccc(Br)cc4)cc23)CC1 [CP-015]	9.0 M⁻¹ s⁻¹		
C=CC(=O)N1CCN(c2ncnc3cc(Cl)c(-c4ccc(C#N)cc4)cc23)CC1 [CP-016]	2.6 M⁻¹ s⁻¹		
C=CC(=O)N1CCN(c2ncnc3cc(Cl)c(-c4ccc(O)cc4)cc23)CC1 [CP-017]	6.0 M⁻¹ s⁻¹		
C=CC(=O)N1CCN(c2ncnc3cc(Cl)c(-c4cccs4)cc23)CC1 [CP-018]	17 M⁻¹ s⁻¹		
C=CC(=O)N1CCN(c2ncnc3cc(Cl)c(-c4ccc(Cl)s4)cc23)CC1 [CP-019]	6.3 M⁻¹ s⁻¹		
C=CC(=O)N1CCN(c2ncnc3cc(Cl)c(-c4ccc(C)s4)cc23)CC1 [CP-020]	19 M⁻¹ s⁻¹		
CC(=O)N1CCN(c2nc(OCCCN(C)C)nc3c(F)c(-c4cc(O)cc5ccccc45)c(Cl)cc23)CC1 [CP-023, 1-(4-(6-chloro-2-(3-(dimethylamino)propoxy)-8-fluoro-7-(3-hydroxynaphthalen-1-yl)quinazolin-4-yl)piperazin-1-yl)ethanone]			less CP-008 is bound to K-Ras
CN(C)CCCOc1nc(N2CCN(C=O)CC2)c2cc(Cl)c(-c3cc(O)cc4ccccc34)c(F)c2n1 [CP-024, 4-(6-chloro-2-(3-(dimethylamino)propoxy)-8-fluoro-7-(3-hydroxynaphthalen-1-yl)quinazolin-4-yl)piperazine-1-carbaldehyde]			less CP-008 is bound to K-Ras
